Experimental findings from US12065442B2, “Tropomyosin receptor kinase (TRK) degradation compounds and methods of use” (Cullgen (Shanghai), Inc., priority 2018, dated 2024) are described below.

In the first test the test system is KM12 cells. The test is described as follows: Cell viability assay (CellTiter-Glo) in KM12 cells. Particulars: Homo sapiens, 72 h; Table 4; KM12 cell viability, CellTiter-Glo, 3 days; read-out: IC50. It counts as cell-based. (ATP-based viability assays read luminescence as a measure of living cells.)
The term IC50 denotes the point on the concentration scale where inhibition reaches its midpoint. In the case of `O=C1CCC(N2C(=O)c3ccc(NCCN4CCN(c5ccc(C(=O)Nc6n[nH]c7ccc(Cc8cc(F)cc(F)c8)cc67)c(NC6CCOCC6)c5)CC4)cc3C2=O)C(=O)N1` (centres unmarked) [TR-232, N-(5-(3,5-Difluorobenzyl)-1H-indazol-3-yl)-4-(4-(2-((2-(2,6-dioxopiperidin-3-yl)-1,3-dioxoisoindolin-5-yl)amino)ethyl)piperazin-1-yl)-2-((tetrahydro-2H-pyran-4-yl)amino)benzamide], the IC50 turned out to be 2.6 nM.
For the molecule `O=C1CCC(N2C(=O)c3ccc(NC(=O)CN4CCN(c5cccc(-c6cnc7ccc(N8CCC[C@@H]8c8cccc(F)c8)nn67)n5)CC4)cc3C2=O)C(=O)N1` (stereo partly drawn) [TR-233, N-(2-(2,6-Dioxopiperidin-3-yl)-1,3-dioxoisoindolin-5-yl)-2-(4-(6-(6-((R)-2-(3-fluorophenyl)pyrrolidin-1-yl)imidazo[1,2-b]pyridazin-3-yl)pyridin-2-yl)piperazin-1-yl)acetamide], the IC50 turned out to be 5 nM.
With `O=C1CCC(N2C[C@H](c3cccc(CN4CCN(c5cccc(-c6cnc7ccc(N8CCC[C@@H]8c8cccc(F)c8)nn67)n5)CC4)c3)OC2=O)C(=O)N1` (stereo partly drawn) [TR-235, 3-((S)-5-(3-((4-(6-(6-((R)-2-(3-Fluorophenyl)pyrrolidin-1-yl)imidazo[1,2-b]pyridazin-3-yl)pyridin-2-yl)piperazin-1-yl)methyl)phenyl)-2-oxooxazolidin-3-yl)piperidine-2,6-dione], the IC50 amounted to 3.3 nM.
On the same count and under the same terms, under `O=C1CCC(N2C(=O)Cc3c(NCCN4CCN(c5cccc(-c6cnc7ccc(N8CCC[C@@H]8c8cccc(F)c8)nn67)n5)CC4)cccc32)C(=O)N1` (stereo partly drawn) [TR-236, 3-(4-((2-(4-(6-(6-((R)-2-(3-Fluorophenyl)pyrrolidin-1-yl)imidazo[1,2-b]pyridazin-3-yl)pyridin-2-yl)piperazin-1-yl)ethyl)amino)-2-oxoindolin-1-yl)piperidine-2,6-dione] stands 99 nM.
For the molecule `O=C1CCC(N2C(=O)c3ccc(CN4CC(N5CCN(c6cccc(-c7cnc8ccc(N9CCC[C@@H]9c9cccc(F)c9)nn78)n6)CC5)C4)cc3C2=O)C(=O)N1` (stereo partly drawn) [TR-237, 2-(2,6-dioxopiperidin-3-yl)-5-((3-(4-(6-(6-((R)-2-(3-fluorophenyl)pyrrolidin-1-yl)imidazo[1,2-b]pyridazin-3-yl)pyridin-2-yl)piperazin-1-yl)azetidin-1-yl)methyl)isoindoline-1,3-dione], the IC50 was found to be 138 nM.
Take `Cn1c(=O)n(C2CCC(=O)NC2=O)c2cccc(C#CCCN3CCN(c4cccc(-c5cnc6ccc(N7CCC[C@@H]7c7cccc(F)c7)nn56)n4)CC3)c21` (stereo partly drawn) [TR-239, 3-(4-(4-(4-(6-(6-((R)-2-(3-fluorophenyl)pyrrolidin-1-yl)imidazo[1,2-b]pyridazin-3-yl)pyridin-2-yl)piperazin-1-yl)but-1-yn-1-yl)-3-methyl-2-oxo-2,3-dihydro-1H-benzo[d]imidazol-1-yl)piperidine-2,6-dione]: the IC50 came to 46 nM.
For the molecule `Cn1c(=O)n(C2CCC(=O)NC2=O)c2cccc(CCCN3CCN(c4cccc(-c5cnc6ccc(N7CCC[C@@H]7c7cccc(F)c7)nn56)n4)CC3)c21` (stereo partly drawn) [TR-240, 3-(4-(3-(4-(6-(6-((R)-2-(3-fluorophenyl)pyrrolidin-1-yl)imidazo[1,2-b]pyridazin-3-yl)pyridin-2-yl)piperazin-1-yl)propyl)-3-methyl-2-oxo-2,3-dihydro-1H-benzo[d]imidazol-1-yl)piperidine-2,6-dione], the IC50 was 16 nM.

Staying with this test, now noted: Homo sapiens, KM12, 72 h.
With `Cn1c(=O)n(C2CCC(=O)NC2=O)c2cccc(C#CCN3CCN(c4cccc(-c5cnc6ccc(N7CCC[C@@H]7c7cccc(F)c7)nn56)n4)CC3)c21` (stereo partly drawn) [TR-238, 3-(4-(3-(4-(6-(6-((R)-2-(3-fluorophenyl)pyrrolidin-1-yl)imidazo[1,2-b]pyridazin-3-yl)pyridin-2-yl)piperazin-1-yl)prop-1-yn-1-yl)-3-methyl-2-oxo-2,3-dihydro-1H-benzo[d]imidazol-1-yl)piperidine-2,6-dione], inhibition was half-maximal at 16 nM (IC50).
